Experimental data reported in patent publication US8471005B2 (Cephalon, Inc., priority 2008, dated 2013).
Like-named read-outs stand apart in the source and are kept apart here.

Columns and labels:
ALK = target: T1, ALK (Homo sapiens, UniProt Q9UM73); assay: ALK Kinase Assay (ELISA/TRF, PLC-γ substrate); assay type: biochemical; conditions: read-out: ALK Potency
T1 construct: host or cells: baculovirus expression system
Outline: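 IC50 values derive from percent inhibition plotted against log10 compound concentration and fitted to a variable-slope sigmoidal equation. The underlying reaction used 30 ng/ml ALK acting on immobilized PLC-γ (10 μg/mL in TBS) at 37° C for 15 minutes, read with Eu-N1 PT66 antibody.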

JAK2 = target: T2, JAK2 (Homo sapiens, UniProt O60674); assay: Recombinant Human JAK2 Kinase Assay (TRF); assay type: biochemical; conditions: read-out: JAK2 Potency
T2 construct: host or cells: baculovirus expression system
T2 sequence (O60674 whole entry): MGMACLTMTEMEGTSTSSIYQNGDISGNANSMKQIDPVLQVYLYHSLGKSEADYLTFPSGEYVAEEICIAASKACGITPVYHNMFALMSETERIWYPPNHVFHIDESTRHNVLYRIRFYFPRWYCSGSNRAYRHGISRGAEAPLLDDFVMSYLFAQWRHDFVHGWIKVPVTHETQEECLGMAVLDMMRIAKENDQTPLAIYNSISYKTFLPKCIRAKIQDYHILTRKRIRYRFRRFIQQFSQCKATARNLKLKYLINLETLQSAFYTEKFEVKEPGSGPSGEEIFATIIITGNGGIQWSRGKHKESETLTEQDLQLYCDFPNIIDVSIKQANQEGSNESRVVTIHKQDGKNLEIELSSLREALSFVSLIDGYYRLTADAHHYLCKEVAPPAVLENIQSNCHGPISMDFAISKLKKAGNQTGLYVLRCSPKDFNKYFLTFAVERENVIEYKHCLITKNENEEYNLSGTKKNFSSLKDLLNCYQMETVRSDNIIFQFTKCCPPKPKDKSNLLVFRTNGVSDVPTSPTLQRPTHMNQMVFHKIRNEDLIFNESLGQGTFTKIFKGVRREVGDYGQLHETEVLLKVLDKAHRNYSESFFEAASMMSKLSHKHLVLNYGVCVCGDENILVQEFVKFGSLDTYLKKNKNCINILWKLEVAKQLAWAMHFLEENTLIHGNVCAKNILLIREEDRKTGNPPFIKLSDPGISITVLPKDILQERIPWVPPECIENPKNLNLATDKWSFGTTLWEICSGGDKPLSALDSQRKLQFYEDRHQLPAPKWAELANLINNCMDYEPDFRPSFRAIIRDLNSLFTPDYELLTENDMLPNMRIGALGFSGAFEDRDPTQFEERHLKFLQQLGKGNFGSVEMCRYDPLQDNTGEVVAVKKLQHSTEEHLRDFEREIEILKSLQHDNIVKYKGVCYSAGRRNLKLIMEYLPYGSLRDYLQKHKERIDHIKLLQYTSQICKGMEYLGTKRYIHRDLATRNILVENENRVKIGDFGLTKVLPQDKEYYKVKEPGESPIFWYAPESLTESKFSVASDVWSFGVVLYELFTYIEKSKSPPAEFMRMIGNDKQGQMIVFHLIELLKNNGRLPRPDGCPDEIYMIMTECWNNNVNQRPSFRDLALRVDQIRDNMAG
Outline: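 Europium-labelled PY100 antibody reported tyrosine phosphorylation of a Neutravidin-captured biotinyl 15-mer peptide by JAK2 (baculovirus-expressed, 15 ng/ml). Conditions: 20 mM HEPES pH 7.2, 0.2 μM ATP, 1 mM MnCl2, 0.1% BSA, DMSO 2.5% final, 20 min at room temperature.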

[1] = ALK kinase inhibition, 1 μM ATP
[2] = JAK2 kinase inhibition, 0.2 μM ATP

T1 sequence (Q9UM73 19-1620): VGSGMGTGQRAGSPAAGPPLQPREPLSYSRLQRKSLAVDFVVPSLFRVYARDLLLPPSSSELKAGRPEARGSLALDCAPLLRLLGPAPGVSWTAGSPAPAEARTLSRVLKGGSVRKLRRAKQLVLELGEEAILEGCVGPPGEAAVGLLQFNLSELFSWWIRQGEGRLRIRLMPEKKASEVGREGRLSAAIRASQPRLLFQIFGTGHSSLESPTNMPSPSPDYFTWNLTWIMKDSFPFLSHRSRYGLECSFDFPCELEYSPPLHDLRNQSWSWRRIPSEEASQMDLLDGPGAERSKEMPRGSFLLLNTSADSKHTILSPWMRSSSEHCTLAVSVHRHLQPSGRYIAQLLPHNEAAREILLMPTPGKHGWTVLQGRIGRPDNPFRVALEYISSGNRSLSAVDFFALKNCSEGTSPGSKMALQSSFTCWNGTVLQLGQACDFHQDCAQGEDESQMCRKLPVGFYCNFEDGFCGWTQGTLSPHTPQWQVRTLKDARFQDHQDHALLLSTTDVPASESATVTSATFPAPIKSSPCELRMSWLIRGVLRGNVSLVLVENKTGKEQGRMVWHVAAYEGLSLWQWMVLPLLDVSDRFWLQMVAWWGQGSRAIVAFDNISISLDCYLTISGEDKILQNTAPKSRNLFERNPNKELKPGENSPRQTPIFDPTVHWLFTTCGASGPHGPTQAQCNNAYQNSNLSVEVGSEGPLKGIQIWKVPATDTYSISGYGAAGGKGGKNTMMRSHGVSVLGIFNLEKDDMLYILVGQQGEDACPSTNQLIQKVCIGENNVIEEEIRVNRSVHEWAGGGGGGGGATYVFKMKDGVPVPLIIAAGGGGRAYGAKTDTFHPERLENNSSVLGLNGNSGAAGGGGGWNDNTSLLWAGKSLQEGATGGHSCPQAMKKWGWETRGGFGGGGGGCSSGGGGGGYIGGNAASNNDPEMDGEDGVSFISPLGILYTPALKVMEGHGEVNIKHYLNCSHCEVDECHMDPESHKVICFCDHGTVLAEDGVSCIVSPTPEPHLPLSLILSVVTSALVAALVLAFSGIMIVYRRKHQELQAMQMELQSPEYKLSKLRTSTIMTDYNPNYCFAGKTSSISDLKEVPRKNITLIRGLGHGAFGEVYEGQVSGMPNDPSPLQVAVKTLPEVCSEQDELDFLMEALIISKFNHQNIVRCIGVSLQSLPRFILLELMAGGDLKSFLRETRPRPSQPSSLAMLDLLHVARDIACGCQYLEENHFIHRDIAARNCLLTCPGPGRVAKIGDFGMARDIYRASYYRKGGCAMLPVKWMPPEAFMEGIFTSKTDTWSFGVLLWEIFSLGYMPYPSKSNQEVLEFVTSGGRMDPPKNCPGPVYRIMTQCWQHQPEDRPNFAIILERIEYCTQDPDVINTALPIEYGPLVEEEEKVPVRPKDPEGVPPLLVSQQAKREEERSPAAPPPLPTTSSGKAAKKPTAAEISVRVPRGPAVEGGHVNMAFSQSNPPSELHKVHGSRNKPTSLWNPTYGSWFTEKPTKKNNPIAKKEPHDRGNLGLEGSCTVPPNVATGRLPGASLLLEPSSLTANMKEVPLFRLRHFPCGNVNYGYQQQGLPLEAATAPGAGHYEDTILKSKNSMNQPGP

| IC50 (ALK; ALK Kinase Inhibition) | IC50 (JAK2; JAK2 Kinase Inhibition) | IC50 (ALK; [1]) | IC50 (JAK2; [2]) | SMILES |
| --- | --- | --- | --- | --- |
| – | – | > 10000 nM | < 100 nM | CC(C)(C)NS(=O)(=O)c1cccc(-c2ccc3cnc(Nc4ccc(C5CCN(C(=O)OC(C)(C)C)CC5)cc4)nn23)c1 [Example 1058, 4-{4-[7-(3-tert-Butylsulfamoyl-phenyl)-pyrrolo[2,1-f][1,2,4]triazin-2-ylamino]-phenyl}-piperidine-1-carboxylic acid tert-butyl ester] |
| < 100 nM | 100 to 1000 nM | – | – | COc1cc(N2CCCC(N3CCOCC3)C2)ccc1Nc1ncc2ccc(-c3ccccc3OC)n2n1 (centres unmarked) [Example 1444, [2-Methoxy-4-(3-morpholin-4-yl-piperidin-1-yl)-phenyl]-[7-(2-methoxy-phenyl)-pyrrolo[2,1-f][1,2,4]triazin-2-yl]-amine] |
| – | – | 100 to 1000 nM | < 100 nM | CCc1nc2ccc(Nc3ncc4ccc(-c5cccc(S(=O)(=O)NC(C)(C)C)c5)n4n3)cc2[nH]1 [Example 1328, N-tert-Butyl-3-[2-(2-ethyl-3H-benzimidazol-5-ylamino)-pyrrolo[2,1-f][1,2,4]triazin-7-yl]-benzenesulfonamide] |
| – | – | < 100 nM | 100 to 1000 nM | COc1cc(C2CCN(CC(N)=O)CC2)ccc1Nc1ncc2c(C)cc(-c3ccccc3N(C)S(C)(=O)=O)n2n1 [Example 1255, 2-[4-(4-{7-[2-(Methanesulfonyl-methyl-amino)-phenyl]-5-methyl-pyrrolo[2,1-f][1,2,4]triazin-2-ylamino}-3-methoxy-phenyl)-piperidin-1-yl]-acetamide] |
| > 10000 nM | > 10000 nM | – | – | COc1ccccc1-c1ccc2cnc(-c3nnn[nH]3)nn12 [Example 1502, 7-(2-Methoxy-phenyl)-2-(1H-tetrazol-5-yl)-pyrrolo[2,1-f][1,2,4]triazine] |
| – | – | < 100 nM | 100 to 1000 nM | COc1cc(CN2CCN(C)CC2)ccc1Nc1ncc2ccc(-c3ccccc3OC)n2n1 [Example 1252, [2-Methoxy-4-(4-methyl-piperazin-1-ylmethyl)-phenyl]-[7-(2-methoxy-phenyl)-pyrrolo[2,1-f][1,2,4]triazin-2-yl]-amine] |
| < 100 nM | < 100 nM | – | – | COc1cc(N2CCC(N3CCOCC3)CC2)ccc1Nc1ncc2ccc(-c3ccccc3N(CC3CC3)S(C)(=O)=O)n2n1 [Example 1461, N-Cyclopropylmethyl-N-(2-{2-[2-methoxy-4-(4-morpholin-4-yl-piperidin-1-yl)-phenylamino]-pyrrolo[2,1-f][1,2,4]triazin-7-yl}-phenyl)-methanesulfonamide] |
| 100 to 1000 nM | < 100 nM | – | – | CN(c1ccccc1-c1ccc2cnc(Nc3ccc4nc(CN5CCOCC5)[nH]c4c3)nn12)S(C)(=O)=O [Example 1517, N-Methyl-N-{2-[2-(2-morpholin-4-ylmethyl-3H-benzimidazol-5-ylamino)-pyrrolo[2,1-f][1,2,4]triazin-7-yl]-phenyl}-methanesulfonamide] |
| – | – | > 10000 nM | < 100 nM | CC(C)(C)NS(=O)(=O)c1cccc(-c2ccc3cnc(Nc4ccc5nc(C(F)(F)F)[nH]c5c4)nn23)c1 [Example 1297, N-tert-Butyl-3-[2-(2-trifluoromethyl-3H-benzimidazol-5-ylamino)-pyrrolo[2,1-f][1,2,4]triazin-7-yl]-benzenesulfonamide] |
| – | – | < 100 nM | 100 to 1000 nM | COc1cc(CN2CCN(C(=O)CNC(=O)OC(C)(C)C)CC2)ccc1Nc1ncc2ccc(-c3ccccc3N(C)S(C)(=O)=O)n2n1 [Example 1239, {2-[4-(4-{7-[2-(Methanesulfonyl-methyl-amino)-phenyl]-pyrrolo[2,1-f][1,2,4]triazin-2-ylamino}-3-methoxy-benzyl)-piperazin-1-yl]-2-oxo-ethyl}-carbamic acid tert-butyl ester] |
| < 100 nM | < 100 nM | – | – | COc1ccccc1-c1ccc2cnc(Nc3ccc(CN4CCCC4)cc3)nn12 [Example 1430, [7-(2-Methoxy-phenyl)-pyrrolo[2,1-f][1,2,4]triazin-2-yl]-(4-pyrrolidin-1-ylmethyl-phenyl)-amine] |
| 1000 to 10000 nM | < 100 nM | – | – | CC(=O)N1CCCC(C)(C)c2ccc(Nc3ncc4ccc(-c5cccc(S(=O)(=O)NC(C)(C)C)c5)n4n3)cc21 [Example 1369, 3-[2-(1-Acetyl-5,5-dimethyl-2,3,4,5-tetrahydro-1H-benzo[b]azepin-8-ylamino)-pyrrolo[2,1-f][1,2,4]triazin-7-yl]-N-tert-butyl-benzenesulfonamide] |
| – | – | 1000 to 10000 nM | < 100 nM | CC(=O)Nc1cccc(Nc2ncc3ccc(-c4cccn4CCC#N)n3n2)c1 [Example 1294, N-(3-{7-[1-(2-Cyano-ethyl)-1H-pyrrol-2-yl]-pyrrolo[2,1-f][1,2,4]triazin-2-ylamino}-phenyl)-acetamide] |
| – | – | 1000 to 10000 nM | < 100 nM | CC(=O)Nc1cccc(Nc2ncc3ccc(-c4cccc(NC(=O)C(C)(C)C)c4)n3n2)c1 [Example 881, N-{3-[2-(3-Acetylamino-phenylamino)-pyrrolo[2,1-f][1,2,4]triazin-7-yl]-phenyl}-2,2-dimethyl-propionamide] |
| < 100 nM | < 100 nM | – | – | CN(c1ccccc1-c1ccc2cnc(Nc3ccc(C4CCN(CC(N)=O)CC4)cc3)nn12)S(C)(=O)=O [Example 1408, 2-[4-(4-{7-[2-(Methanesulfonyl-methyl-amino)-phenyl]-pyrrolo[2,1-f][1,2,4]triazin-2-ylamino}-phenyl)-piperidin-1-yl]-acetamide] |

Further lines, the compound ahead of its results:

| SMILES | IC50 (ALK; ALK Kinase Inhibition) | IC50 (JAK2; JAK2 Kinase Inhibition) | IC50 (ALK; [1]) | IC50 (JAK2; [2]) |
| --- | --- | --- | --- | --- |
| Clc1cccc(-c2ccc3cnc(Nc4ccc(N5CCCC5)cc4)nn23)c1 [Example 167, [7-(3-Chloro-phenyl)-pyrrolo[2,1-f][1,2,4]triazin-2-yl]-(4-pyrrolidin-1-yl-phenyl)-amine] | 1000 to 10000 nM | < 100 nM | – | – |
| COc1cc(CCN2CCOCC2)ccc1Nc1ncc2ccc(-c3ccccc3OC)n2n1 [Example 492, [2-Methoxy-4-(2-morpholin-4-yl-ethyl)-phenyl]-[7-(2-methoxy-phenyl)-pyrrolo[2,1-f][1,2,4]triazin-2-yl]-amine] | – | – | < 100 nM | 100 to 1000 nM |
| CCN(c1ccccc1-c1ccc2cnc(Nc3ccc(C4CCN(C[C@@H](C)O)CC4)cc3OC)nn12)S(C)(=O)=O [Example 873, N-Ethyl-N-[2-(2-{4-[1-((R)-2-hydroxy-propyl)-piperidin-4-yl]-2-methoxy-phenylamino}-pyrrolo[2,1-f][1,2,4]triazin-7-yl)-phenyl]-methanesulfonamide] | – | – | < 100 nM | 100 to 1000 nM |
| c1cc2c(c(-c3ccc4cnc(Nc5cnc6c(N7CCNCC7)cccc6c5)nn34)c1)OCC2 [Example 710, [7-(2,3-Dihydro-benzofuran-7-yl)-pyrrolo[2,1-f][1,2,4]triazin-2-yl]-(8-piperazin-1-yl-quinolin-3-yl)-amine] | – | – | > 10000 nM | 1000 to 10000 nM |
| COc1ccccc1-c1ccc2cnc(Nc3ccc4c(c3)CCC(N3CCOCC3)CC4)nn12 (centres unmarked) [Example 614, [7-(2-methoxy-phenyl)-pyrrolo[2,1-f][1,2,4]triazin-2-yl]-(7-morpholin-4-yl-6,7,8,9-tetrahydro-5H-benzocyclohepten-2-yl)amine] | – | – | < 100 nM | < 100 nM |
| COc1c(Nc2ncc3ccc(-c4ccccc4N(C)S(C)(=O)=O)n3n2)cccc1C1CCN(C)CC1 [Example 776, N-(2-{2-[2-Methoxy-3-(1-methyl-piperidin-4-yl)-phenylamino]-pyrrolo [2,1-f][1,2,4]triazin-7-yl}-phenyl)-N-methyl-methanesulfonamide] | – | – | < 100 nM | < 100 nM |
| COc1cc(C2CCN(C3COC3)CC2)ccc1Nc1ncc2ccc(-c3ccccc3OC)n2n1 [Example 827, [2-Methoxy-4-(1-oxetan-3-yl-piperidin-4-yl)-phenyl]-[7-(2-methoxy-phenyl)-pyrrolo[2,1-f][1,2,4]triazin-2-yl]-amine] | – | – | < 100 nM | 100 to 1000 nM |
| COc1ccccc1-c1ccc2cnc(Nc3cccc(C4CCN(C)CC4)c3OC)nn12 [Example 775, [2-Methoxy-3-(1-methyl-piperidin-4-yl)-phenyl]-[7-(2-methoxy-phenyl)-pyrrolo[2,1-f][1,2,4]triazin-2-yl]-amine] | – | – | < 100 nM | < 100 nM |
| COc1ccccc1-c1ccc2cnc(Nc3cccc(C(=O)N4CCOCC4)c3)nn12 [Example 327, {3-[7-(2-Methoxy-phenyl)-pyrrolo[2,1-f][1,2,4]triazin-2-ylamino]-phenyl}-morpholin-4-yl-methanone] | 1000 to 10000 nM | < 100 nM | – | – |
| CN1CCN(C2CCCN(c3ccc(Nc4ncc5ccc(-c6cccc(Cl)c6)n5n4)cc3)C2)CC1 (centres unmarked) [Example 350, [7-(3-Chloro-phenyl)-pyrrolo[2,1-f][1,2,4]triazin-2-yl]-{4-[3-(4-methyl-piperazin-1-yl)-piperidin-1-yl]-phenyl}-amine] | < 100 nM | < 100 nM | – | – |
| C[C@@H](O)CN1CCN(c2cccc(Nc3ncc4ccc(-c5cccc(Cl)c5)n4n3)c2)CC1 [Example 215, (R)-1-(4-{3-[7-(3-Chloro-phenyl)-pyrrolo[2,1-f][1,2,4]triazin-2-ylamino]-phenyl}-piperazin-1-yl)-propan-2-ol] | < 100 nM | < 100 nM | – | – |
| COc1cc(N2CCC(N3CCOCC3)CC2)ccc1Nc1ncc2ccc(-c3ccccc3C#N)n2n1 [Example 511, 2-{2-[2-Methoxy-4-(4-morpholin-4-yl-piperidin-1-yl)-phenylamino]-pyrrolo[2,1-f][1,2,4]triazin-7-yl}-benzonitrile] | – | – | < 100 nM | < 100 nM |
| CN1CCOc2ccc(Nc3ncc4ccc(-c5cccnc5)n4n3)cc21 [Example 642, (4-Methyl-3,4-dihydro-2H-benzo[1,4]oxazin-6-yl)-(7-pyridin-3-yl-pyrrolo[2,1-f][1,2,4]triazin-2-yl)-amine] | – | – | 1000 to 10000 nM | < 100 nM |
